We go through 38 compounds from patent US10106501B2, “Nuclear receptor modulators” (AbbVie Inc., priority 2015, dated 2018).

One assay addresses T1, chimeric human RORγ-Gal4 receptor (Homo sapiens, UniProt P51449).
T1 sequence (P51449 269-508 limits assumed): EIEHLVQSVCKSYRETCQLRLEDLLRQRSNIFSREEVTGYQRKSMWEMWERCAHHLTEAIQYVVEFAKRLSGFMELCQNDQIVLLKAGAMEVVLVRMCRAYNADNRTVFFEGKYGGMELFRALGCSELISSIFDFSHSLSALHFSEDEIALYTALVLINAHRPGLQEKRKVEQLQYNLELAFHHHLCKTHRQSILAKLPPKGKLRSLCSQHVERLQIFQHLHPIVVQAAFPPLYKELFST
The assay can be described thus: transient transactivation assay (RORγ-Gal4 luciferase reporter). The settings on record: Cos-7 cells transfected with RORγ-Gal4 and 5Gal4 pGL3 TK Luc reporter; overnight incubation; T0901317 at 10^-5 M as reference; read-out: IC50. It is filed as cell-based.
For `COC(c1c(C)ccc(C(=O)N2CCOCC2)c1C)c1cc2c(C)cc(C(F)(F)F)cc2n1C` (centres unmarked) [Example K1, (3-((1,4-dimethyl-6-(trifluoromethyl)-1H-indol-2-yl)(methoxy)methyl)-2,4-dimethylphenyl)(morpholino)methanone], the IC50 – broadly, the concentration at which inhibition is half-maximal – is 0.1 to 0.5 µM. On the same count and under the same terms, in the case of `Cn1c(Cc2c(Cl)ccc(C(=O)N3CCOCC3)c2Cl)cc2ccc(C#N)cc21` [Example AC, 2-(2,6-dichloro-3-(morpholine-4-carbonyl)benzyl)-1-methyl-1H-indole-6-carbonitrile] it was 0.1 to 0.5 µM.

On to `COc1cc(C)c2cc(Cc3c(Cl)ccc(C(=O)N4CCC(CC(=O)O)CC4)c3Cl)n(C)c2c1` [Example FD, 2-(1-(2,4-dichloro-3-((6-methoxy-1,4-dimethyl-1H-indol-2-yl)methyl)benzoyl)piperidin-4-yl)acetic acid], for which the IC50 was less than 0.1 µM. Same read-out and setting: in the case of `Cc1cn(C(=O)c2c(Cl)ccc(C(=O)N3CCC(CC(=O)O)CC3)c2Cl)c2c(C)cc(C#N)cc12` [DN, 2-(1-(2,4-dichloro-3-(5-cyano-3,7-dimethyl-1H-indole-1-carbonyl)benzoyl)piperidin-4-yl)acetic acid] it was less than 0.1 µM; in that of `CCn1c(Cc2c(Cl)ccc(C(=O)N3CCOCC3)c2Cl)nc2c(C)cc(C#N)cc21` [CG, 2-(2,6-dichloro-3-(morpholine-4-carbonyl)benzyl)-1-ethyl-4-methyl-1H-benzo[d]imidazole-6-carbonitrile], 0.5 to 1 µM. Still for that read-out and setting: the figure for `Cc1cc(C(F)(F)F)cc2c1c(Cc1c(Cl)ccc(C(=O)N3C[C@@H]4[C@H](C3)[C@H]4C(=O)O)c1Cl)cn2C` [Example F1-1] is less than 0.1 µM. On to `Cn1c(Cc2c(Cl)ccc(C(=O)N3CC[C@@H](F)[C@H](O)C3)c2Cl)cc2ccc(C(F)(F)F)cc21` [Example L-5], for which the 50% inhibitory concentration (IC50) fell in the range of 0.5 to 1 µM.

On to `Cc1nn(Cc2c(Cl)ccc(C(=O)N3CCC(C4COC4)CC3)c2Cl)c2c(C)cc(C(F)(F)F)cc12` [DD-1, (2,4-dichloro-3-((3,7-dimethyl-5-(trifluoromethyl)-1H-indazol-1-yl)methyl)phenyl)(4-(oxetan-3-yl)piperidin-1-yl)methanone], for which the IC50 is less than 0.1 µM.

With `Cc1cc(C(F)(F)F)nn2c(C)c(C(=O)c3c(Cl)ccc(C(=O)N4CCC(CC(=O)O)CC4)c3Cl)nc12` [CZ-1A, 2-(1-(2,4-dichloro-3-(3,8-dimethyl-6-(trifluoromethyl)imidazo[1,2-b]pyridazine-2-carbonyl)benzoyl)piperidin-4-yl)acetic acid], the IC50 fell in the range of 0.1 to 0.5 µM. Same read-out and setting: in the case of `CNC(=O)[C@@H]1CCCN1C(=O)c1ccc(Cl)c(Cc2nc3c(C)cc(C(F)(F)F)cc3n2C)c1Cl` [BJ-1] it was 1 to 10 µM. The same measure, in the same setting: in the case of `Cc1cc(C#N)cc2c1nc(Cc1c(Cl)ccc(C(=O)N3CCC(C(C)(C)CO)CC3)c1Cl)n2C` [BN-6] it was 0.1 to 0.5 µM. Regarding `Cn1c(Cc2c(Cl)ncc(C(=O)N3CCC(CC(=O)O)CC3)c2Cl)cc2c(F)cc(C3CC3)cc21` [Example GN, 2-[1-[4,6-dichloro-5-[(6-cyclopropyl-4-fluoro-1-methyl-1H-indol-2-yl)methyl]pyridine-3-carbonyl]-4-piperidyl]acetic acid], the half-inhibitory concentration (IC50) is less than 0.1 µM. On the same count and under the same terms, in the case of `Cc1cc(C(F)(F)F)cc2c1cc(C(=O)c1c(Cl)ccc(C(=O)N3CC[C@@H](C(=O)O)[C@@H](C)C3)c1Cl)n2C` [AQ-5] it was less than 0.1 µM; in that of `CC1CN(C(=O)c2ccc(Cl)c(Cc3cc4ccc(OC(F)(F)F)cc4n3C)c2Cl)CCC1C(=O)O` (centres unmarked) [FI-2], less than 0.1 µM; in that of `Cc1cc(C#N)cc2c1cc(Cc1c(Cl)ccc(O[C@H]3C[C@H](C(=O)O)C3)c1Cl)n2C` [Example AH, trans-3-(2,4-dichloro-3-((6-cyano-1,4-dimethyl-1H-indol-2-yl)methyl)phenoxy)cyclobutanecarboxylic acid], 0.5 to 1 µM. Turning to `Cc1cc(Cl)nc2c1cc(Cc1c(Cl)ccc(C(=O)N3CCOCC3)c1Cl)n2C` [CM1, (2,4-dichloro-3-((6-chloro-1,4-dimethyl-1H-pyrrolo[2,3-b]pyridin-2-yl)methyl)phenyl)(morpholino)methanone], the IC50 is less than 0.1 µM. Still for that read-out and setting: in the case of `Cc1cc2nc(Cc3c(Cl)ccc(C(=O)N4CCOCC4)c3Cl)c(C)n2nc1C#N` [DB, 2-(2,6-dichloro-3-(morpholine-4-carbonyl)benzyl)-3,7-dimethylimidazo[1,2-b]pyridazine-6-carbonitrile] it was 1 to 10 µM. Still for that read-out and setting: in the case of `Cc1c(C#N)ccc2c1cc(Cc1c(Cl)ccc(C(=O)N3CCC(CC(=O)O)CC3)c1Cl)n2C` [EY, 2-(1-(2,4-dichloro-3-((5-cyano-1,4-dimethyl-1H-indol-2-yl)methyl)benzoyl)piperidin-4-yl)acetic acid] it was less than 0.1 µM. For the compound `Cc1cc(C(F)(F)F)cc2c1cc(Cc1c(Cl)ccc(C(=O)N3CCC(C(C)(C)C(=O)O)CC3)c1Cl)n2C` [Example B-23], the IC50 is less than 0.1 µM. As to `Cc1cc(C(F)(F)F)cn2c(C)c(Cc3c(Cl)ccc(C(=O)N4CCC(CCO)CC4)c3Cl)nc12` [CT-2], the half-maximal inhibitory concentration (IC50) lay within 0.1 to 0.5 µM.

Turning to `Cc1cc(C(F)(F)F)cc2c1cc(Cc1c(Cl)ccc(C(=O)N3CCC(F)(C(=O)O)CC3)c1Cl)n2C` [Example B-14], the IC50 is 0.1 to 0.5 µM. As for `Cc1cn(C(=O)c2c(Cl)ccc(C(=O)N3CCC(C(=O)O)CC3)c2Cl)c2c(C)cc(OC(F)(F)F)cc12` [EH-1], the concentration for half-maximal inhibition (IC50) fell in the range of 0.1 to 0.5 µM. The same measure, in the same setting: in the case of `Cc1cc(OC(F)(F)F)cc2c1cc(Cc1c(Cl)ccc(C(=O)N3CCOCC3)c1Cl)n2C` [DP-1, (2,4-dichloro-3-((1,4-dimethyl-6-(trifluoromethoxy)-1H-indol-2-yl)methyl)phenyl)(morpholino)methanone] it was less than 0.1 µM; in that of `Cc1cc(C(F)(F)F)cc2c1c(Cc1c(Cl)ccc(C(=O)N3CCC(CC(=O)O)CC3)c1Cl)nn2C` [EE, 2-(1-(2,4-dichloro-3-((1,4-dimethyl-6-(trifluoromethyl)-1H-indazol-3-yl)methyl)benzoyl)piperidin-4-yl)acetic acid], less than 0.1 µM. Still for that read-out and setting: in the case of `Cc1cc(C(F)(F)F)cc2c1nc(Cc1c(Cl)ccc(C(=O)N3CCC4(CC3)COC4)c1Cl)n2C` [BJ-25] it was 0.5 to 1 µM; in that of `Cc1cc(C(F)(F)F)cc2c1cc(Cc1c(Cl)ccc(C(=O)N3CCC(C(=O)O)C(F)(F)C3)c1Cl)n2C` (centres unmarked) [Example AZ, 1-(2,4-dichloro-3-((1,4-dimethyl-6-(trifluoromethyl)-1H-indol-2-yl)methyl)benzoyl)-3,3-difluoropiperidine-4-carboxylic acid], less than 0.1 µM. Still for that read-out and setting: the figure for `Cc1cc(C)c2nc(Cc3c(Cl)ccc(C(=O)N4CCOCC4)c3Cl)n(C)c2c1` [Example BO, (2,4-dichloro-3-((1,4,6-trimethyl-1H-benzo[d]imidazol-2-yl)methyl)phenyl)(morpholino)methanone] is 0.5 to 1 µM. Regarding `Cc1cc(C(F)(F)F)cc2c1cc(Cc1c(Cl)ccc(C(=O)N3CCOCC3)c1Cl)n2C` [D, (2,4-dichloro-3-((1,4-dimethyl-6-(trifluoromethyl)-1H-indol-2-yl)methyl)phenyl)(morpholino)methanone], the 50% inhibitory concentration (IC50) is less than 0.1 µM. Still for that read-out and setting: the figure for `Cc1cc(C(F)(F)F)cc2ccn(C(=O)c3c(Cl)ccc(C(=O)N4CCC(CC(=O)O)CC4)c3Cl)c12` [ES, 2-(1-(2,4-dichloro-3-(7-methyl-5-(trifluoromethyl)-1H-indole-1-carbonyl)benzoyl)piperidin-4-yl)acetic acid] is less than 0.1 µM.

As for `Cc1cc(C(F)(F)F)cc2c1nc(Cc1c(Cl)ccc(CN3CCOCC3)c1Cl)n2C` [BW-10], the IC50 was 0.1 to 0.5 µM.

Turning to `Cc1cc(C#N)cc2c1cc(Cc1c(Cl)ccc(C(=O)N3CCCC(O)C3)c1Cl)n2C` (centres unmarked) [AA-5], the half-maximal inhibitory concentration (IC50) lay in the range of 0.1 to 0.5 µM. In the case of `Cc1cn(Cc2c(Cl)ccc(C(=O)N3CCC(C(=O)O)CC3)c2Cl)c2c(C)cc(C(F)(F)F)cc12` [DH, 1-(2,4-dichloro-3-((3,7-dimethyl-5-(trifluoromethyl)-1H-indol-1-yl)methyl)benzoyl)piperidine-4-carboxylic acid], the half-maximal inhibitory concentration (IC50) was less than 0.1 µM.

`Cc1cc(C(F)(F)F)cc2c1cc(C(=O)c1c(Cl)ccc(CO)c1Cl)n2C` [Example AR, (2,6-dichloro-3-(hydroxymethyl)phenyl)(1,4-dimethyl-6-(trifluoromethyl)-1H-indol-2-yl)methanone]: the IC50 lay within 1 to 10 µM. Still for that read-out and setting: the figure for `Cc1cc(OC(F)(F)F)cc2c1c(Cc1c(Cl)cnc(C(=O)N3CCC(CC(=O)O)CC3)c1Cl)cn2C` [DX, 2-[1-[3,5-dichloro-4-[[1,4-dimethyl-6-(trifluoromethoxy)-1H-indol-3-yl]methyl]pyridine-2-carbonyl]-4-piperidyl]acetic acid] is less than 0.1 µM; for `Cc1cc(C(F)(F)F)cc2c1nc(Cc1c(Cl)ccc(CN3CCC(CCO)CC3)c1Cl)n2C` [BW-11] it is 0.1 to 0.5 µM. Still for that read-out and setting: the figure for `Cc1cn(C(=O)c2c(Cl)ccc(C(=O)N3CCC(CC(=O)O)CC3)c2Cl)c2c(C)nc(C(F)(F)F)cc12` [EV, 2-(1-(2,4-dichloro-3-(3,7-dimethyl-5-(trifluoromethyl)-1H-pyrrolo[2,3-c]pyridine-1-carbonyl)benzoyl)piperidin-4-yl)acetic acid] is less than 0.1 µM; for `Cc1cc(C(F)(F)F)cc2c1cc(C(=O)c1c(Cl)ccc(C(=O)N3CCC(C4COC4)CC3)c1Cl)n2C` [AP-6] it is less than 0.1 µM.

The same assay, now with this note: read-out: IC50.
In the case of `Cc1cc(C(F)(F)F)nc2c1cc(C(=O)c1c(Cl)ccc(C(=O)N3CC[C@@H](CC(=O)O)[C@@H](C)C3)c1Cl)n2C.Cc1cc(C(F)(F)F)nc2c1cc(C(=O)c1c(Cl)ccc(C(=O)N3CC[C@@H](CC(=O)O)[C@H](C)C3)c1Cl)n2C.Cc1cc(C(F)(F)F)nc2c1cc(C(=O)c1c(Cl)ccc(C(=O)N3CC[C@H](CC(=O)O)[C@@H](C)C3)c1Cl)n2C.Cc1cc(C(F)(F)F)nc2c1cc(C(=O)c1c(Cl)ccc(C(=O)N3CC[C@H](CC(=O)O)[C@H](C)C3)c1Cl)n2C` [Example GA], the 50% inhibitory concentration (IC50) is less than 0.1 µM.
